Results taken from ChEMBL document CHEMBL4840335, “Rational Design and Development of Novel CDK9 Inhibitors for the Treatment of Acute Myeloid Leukemia” (J Med Chem, 2021).
Calls of active or inactive are those of the source. No cut-off for these calls is given here.

Tests used:
[1] = molecular target: Cyclin-dependent kinase 4 (Homo sapiens, UniProt P11802); assay: Inhibition of CDK4 (unknown origin)
[2] = molecular target: Cyclin-dependent kinase 7 (Homo sapiens, UniProt P50613); assay: Inhibition of CDK7 (unknown origin)
[3] = molecular target: Tyrosine-protein kinase receptor UFO (Homo sapiens, UniProt P30530); assay: Inhibition of AXL (unknown origin)
[4] = molecular target: Hepatocyte growth factor receptor (Homo sapiens, UniProt P08581); assay: Inhibition of Met (unknown origin)
[5] = molecular target: Proto-oncogene tyrosine-protein kinase receptor Ret (Homo sapiens, UniProt P07949); assay: Inhibition of RET (unknown origin)
[6] = molecular target: Fibroblast growth factor receptor 1 (Homo sapiens, UniProt P11362); assay: Inhibition of FGFR1 (unknown origin)
[7] = molecular target: Fibroblast growth factor receptor 2 (Homo sapiens, UniProt P21802); assay: Inhibition of FGFR2 (unknown origin)
Chain of Fibroblast growth factor receptor 2 (P21802 whole entry): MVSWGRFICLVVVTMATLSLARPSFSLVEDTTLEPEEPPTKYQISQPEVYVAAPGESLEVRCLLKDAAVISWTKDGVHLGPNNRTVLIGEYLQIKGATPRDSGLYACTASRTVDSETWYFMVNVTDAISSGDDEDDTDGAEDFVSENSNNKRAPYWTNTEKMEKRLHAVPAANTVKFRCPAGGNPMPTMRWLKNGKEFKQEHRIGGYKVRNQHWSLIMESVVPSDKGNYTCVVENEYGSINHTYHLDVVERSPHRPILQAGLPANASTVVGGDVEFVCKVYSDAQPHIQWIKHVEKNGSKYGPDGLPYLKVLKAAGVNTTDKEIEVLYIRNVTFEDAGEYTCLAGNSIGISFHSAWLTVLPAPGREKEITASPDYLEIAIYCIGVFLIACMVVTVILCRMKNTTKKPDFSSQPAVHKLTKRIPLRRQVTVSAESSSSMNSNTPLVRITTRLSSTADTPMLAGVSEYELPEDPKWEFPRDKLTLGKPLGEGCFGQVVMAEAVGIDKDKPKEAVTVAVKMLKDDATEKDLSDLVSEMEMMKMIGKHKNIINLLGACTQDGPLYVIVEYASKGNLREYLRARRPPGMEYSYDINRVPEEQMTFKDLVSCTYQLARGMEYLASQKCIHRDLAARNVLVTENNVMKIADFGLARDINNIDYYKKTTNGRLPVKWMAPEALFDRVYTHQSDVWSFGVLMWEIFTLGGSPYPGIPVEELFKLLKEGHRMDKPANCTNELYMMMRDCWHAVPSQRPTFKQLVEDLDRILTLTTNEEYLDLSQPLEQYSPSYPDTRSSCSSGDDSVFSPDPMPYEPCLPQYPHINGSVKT

[8] = molecular target: Fibroblast growth factor receptor 4 (Homo sapiens, UniProt P22455); assay: Inhibition of FGFR4 (unknown origin)
[9] = molecular target: Platelet-derived growth factor receptor alpha (Homo sapiens, UniProt P16234); assay: Inhibition of PDGFRA (unknown origin)
[10] = molecular target: Epidermal growth factor receptor (Homo sapiens, UniProt P00533); assay: Inhibition of EGFR (unknown origin)
[11] = molecular target: Proto-oncogene tyrosine-protein kinase Src (Homo sapiens, UniProt P12931); assay: Inhibition of SRC (unknown origin)
Chain of Proto-oncogene tyrosine-protein kinase Src (P12931 2-536 limits assumed): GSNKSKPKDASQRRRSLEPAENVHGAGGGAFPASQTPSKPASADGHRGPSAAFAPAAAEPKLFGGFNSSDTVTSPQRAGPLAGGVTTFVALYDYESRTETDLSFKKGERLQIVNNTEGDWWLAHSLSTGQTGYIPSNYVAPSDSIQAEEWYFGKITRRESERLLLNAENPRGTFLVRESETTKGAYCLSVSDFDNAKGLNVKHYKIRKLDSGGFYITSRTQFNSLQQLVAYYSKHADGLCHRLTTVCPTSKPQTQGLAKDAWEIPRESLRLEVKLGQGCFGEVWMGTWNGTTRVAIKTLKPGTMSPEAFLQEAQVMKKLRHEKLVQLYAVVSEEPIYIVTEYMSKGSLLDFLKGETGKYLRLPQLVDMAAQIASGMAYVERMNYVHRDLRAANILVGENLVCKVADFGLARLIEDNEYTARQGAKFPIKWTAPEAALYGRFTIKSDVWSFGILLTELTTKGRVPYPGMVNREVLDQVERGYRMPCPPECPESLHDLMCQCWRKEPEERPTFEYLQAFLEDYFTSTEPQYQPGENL

[12] = molecular target: Tyrosine-protein kinase ABL1 (Homo sapiens, UniProt P00519); assay: Inhibition of ABL (unknown origin)
Ephrin type-A receptor 2 = Ephrin type-A receptor 2 (Homo sapiens, UniProt P29317); assay: Inhibition of EPHA2 (unknown origin)
Chain of Ephrin type-A receptor 2 (P29317 whole entry): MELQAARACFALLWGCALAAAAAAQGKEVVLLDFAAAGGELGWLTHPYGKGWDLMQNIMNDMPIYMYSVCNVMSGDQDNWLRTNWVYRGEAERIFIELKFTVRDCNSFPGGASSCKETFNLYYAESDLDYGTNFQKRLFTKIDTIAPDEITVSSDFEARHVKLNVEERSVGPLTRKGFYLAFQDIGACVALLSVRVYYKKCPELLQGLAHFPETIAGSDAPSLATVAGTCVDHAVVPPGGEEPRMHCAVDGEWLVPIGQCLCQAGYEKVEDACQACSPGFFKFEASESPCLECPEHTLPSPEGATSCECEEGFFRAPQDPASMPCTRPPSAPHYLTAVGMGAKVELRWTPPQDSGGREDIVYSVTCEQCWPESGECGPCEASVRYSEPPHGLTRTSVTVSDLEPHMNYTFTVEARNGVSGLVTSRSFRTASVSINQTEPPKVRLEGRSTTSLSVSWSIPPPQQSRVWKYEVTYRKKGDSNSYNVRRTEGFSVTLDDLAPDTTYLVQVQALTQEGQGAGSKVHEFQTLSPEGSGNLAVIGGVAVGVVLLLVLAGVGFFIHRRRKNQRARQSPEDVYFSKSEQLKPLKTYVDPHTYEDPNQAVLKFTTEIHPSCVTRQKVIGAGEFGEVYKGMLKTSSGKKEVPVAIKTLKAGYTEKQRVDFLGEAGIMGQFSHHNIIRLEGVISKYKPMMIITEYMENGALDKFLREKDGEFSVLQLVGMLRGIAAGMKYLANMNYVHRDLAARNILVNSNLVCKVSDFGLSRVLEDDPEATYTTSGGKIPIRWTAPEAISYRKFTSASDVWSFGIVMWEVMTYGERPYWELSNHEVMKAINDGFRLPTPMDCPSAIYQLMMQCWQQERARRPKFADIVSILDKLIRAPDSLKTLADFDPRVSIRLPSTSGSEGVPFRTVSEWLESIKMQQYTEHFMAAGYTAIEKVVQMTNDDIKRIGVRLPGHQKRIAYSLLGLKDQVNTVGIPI

[13] = molecular target: Insulin-like growth factor 1 receptor (Homo sapiens, UniProt P08069); assay: Inhibition of IGF1R (unknown origin)
Chain of Insulin-like growth factor 1 receptor (P08069 31-736 limits assumed): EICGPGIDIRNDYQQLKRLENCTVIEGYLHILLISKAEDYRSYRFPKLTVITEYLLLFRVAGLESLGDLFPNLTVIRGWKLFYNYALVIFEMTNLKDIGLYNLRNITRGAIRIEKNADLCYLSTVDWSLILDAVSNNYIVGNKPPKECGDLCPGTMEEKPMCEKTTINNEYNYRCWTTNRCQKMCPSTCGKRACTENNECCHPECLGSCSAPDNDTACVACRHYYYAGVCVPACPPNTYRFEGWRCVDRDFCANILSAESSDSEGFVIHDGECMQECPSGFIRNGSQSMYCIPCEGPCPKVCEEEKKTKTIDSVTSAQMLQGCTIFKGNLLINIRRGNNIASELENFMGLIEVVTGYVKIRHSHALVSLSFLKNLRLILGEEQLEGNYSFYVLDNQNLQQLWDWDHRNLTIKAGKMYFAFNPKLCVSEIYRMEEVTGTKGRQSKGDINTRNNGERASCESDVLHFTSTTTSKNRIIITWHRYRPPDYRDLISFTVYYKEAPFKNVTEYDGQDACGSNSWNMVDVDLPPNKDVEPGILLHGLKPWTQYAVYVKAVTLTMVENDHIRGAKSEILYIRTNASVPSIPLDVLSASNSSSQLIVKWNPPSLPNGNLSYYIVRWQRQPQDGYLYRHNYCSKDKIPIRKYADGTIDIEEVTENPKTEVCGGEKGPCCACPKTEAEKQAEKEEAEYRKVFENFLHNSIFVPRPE
Chain of Insulin-like growth factor 1 receptor (P08069 741-1367 limits assumed): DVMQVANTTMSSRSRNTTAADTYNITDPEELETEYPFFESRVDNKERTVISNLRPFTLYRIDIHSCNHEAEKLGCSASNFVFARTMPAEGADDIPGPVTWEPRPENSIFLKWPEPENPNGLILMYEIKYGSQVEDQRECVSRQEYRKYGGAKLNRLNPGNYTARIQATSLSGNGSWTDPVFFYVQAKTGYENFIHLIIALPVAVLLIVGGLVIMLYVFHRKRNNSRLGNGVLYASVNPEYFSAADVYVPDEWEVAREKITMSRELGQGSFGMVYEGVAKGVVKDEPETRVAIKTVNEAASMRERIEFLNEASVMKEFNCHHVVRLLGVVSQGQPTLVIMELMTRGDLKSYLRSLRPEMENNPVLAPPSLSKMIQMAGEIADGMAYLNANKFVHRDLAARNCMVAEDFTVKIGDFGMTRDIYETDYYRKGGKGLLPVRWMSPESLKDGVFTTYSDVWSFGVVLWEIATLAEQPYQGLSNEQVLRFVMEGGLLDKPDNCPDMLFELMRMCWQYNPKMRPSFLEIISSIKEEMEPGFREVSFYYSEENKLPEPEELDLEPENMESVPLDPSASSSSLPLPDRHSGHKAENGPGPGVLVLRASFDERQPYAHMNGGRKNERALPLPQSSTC

[14] = molecular target: Serine/threonine-protein kinase Chk1 (Homo sapiens, UniProt O14757); assay: Inhibition of CHK1 (unknown origin)
[15] = molecular target: Serine/threonine-protein kinase Chk2 (Homo sapiens, UniProt O96017); assay: Inhibition of CHK2 (unknown origin)
[16] = molecular target: Serine/threonine-protein kinase PAK 1 (Homo sapiens, UniProt Q13153); assay: Inhibition of PAK1 (unknown origin)
Chain of Serine/threonine-protein kinase PAK 1 (Q13153 whole entry): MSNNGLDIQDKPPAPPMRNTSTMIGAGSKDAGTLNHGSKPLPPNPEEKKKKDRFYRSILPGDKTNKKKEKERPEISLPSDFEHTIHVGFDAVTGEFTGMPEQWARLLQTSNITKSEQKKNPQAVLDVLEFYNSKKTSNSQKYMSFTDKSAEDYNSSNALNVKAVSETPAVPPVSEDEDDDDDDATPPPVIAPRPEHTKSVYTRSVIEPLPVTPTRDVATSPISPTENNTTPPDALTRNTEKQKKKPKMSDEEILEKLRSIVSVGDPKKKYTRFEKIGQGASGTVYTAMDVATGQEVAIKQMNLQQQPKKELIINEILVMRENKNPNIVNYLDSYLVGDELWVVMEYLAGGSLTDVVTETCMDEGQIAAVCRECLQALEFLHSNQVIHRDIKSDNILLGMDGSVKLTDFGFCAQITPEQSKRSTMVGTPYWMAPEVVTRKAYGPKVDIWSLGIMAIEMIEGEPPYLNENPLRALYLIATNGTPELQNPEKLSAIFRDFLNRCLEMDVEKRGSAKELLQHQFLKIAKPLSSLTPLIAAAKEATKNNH

Z-138 = assay: Antiproliferative activity against human Z138 cells assessed as reduction in cell proliferation measured after 3 to 7 days by MTS assay; assay type: functional, cell-based
MM1.S = assay: Antiproliferative activity against human MM1.S cells assessed as reduction in cell proliferation measured after 3 to 7 days by MTS assay; assay type: functional, cell-based
CCRF-CEM = assay: Antiproliferative activity against human CCRF-CEM cells assessed as reduction in cell proliferation measured after 3 to 7 days by MTS assay; assay type: functional, cell-based
[17] = molecular target: Cyclin-dependent kinase 9 (Homo sapiens) (UniProt P50750); assay: Inhibition of CDK9 in human MV4-11 cells assessed as reduction in RNAP2 phosphorylation at ser2 residues at 1 to 10 uM after 12 hrs by Western blot analysis; assay type: cell-based; details: dose 1-10 µM
Chain of Cyclin-dependent kinase 9 (Homo sapiens) (P50750 whole entry): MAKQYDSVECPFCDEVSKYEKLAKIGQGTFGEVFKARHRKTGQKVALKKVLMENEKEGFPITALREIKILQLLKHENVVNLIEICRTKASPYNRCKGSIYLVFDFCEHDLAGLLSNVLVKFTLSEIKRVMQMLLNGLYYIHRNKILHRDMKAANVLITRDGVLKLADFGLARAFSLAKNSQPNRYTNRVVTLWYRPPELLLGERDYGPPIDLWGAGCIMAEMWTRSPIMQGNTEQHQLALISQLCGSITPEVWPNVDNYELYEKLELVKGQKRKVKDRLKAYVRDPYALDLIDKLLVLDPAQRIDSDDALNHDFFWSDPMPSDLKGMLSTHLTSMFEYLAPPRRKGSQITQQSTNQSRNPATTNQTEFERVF

[18] = molecular target: Cyclin-dependent kinase 9 (Homo sapiens) (UniProt P50750); assay: Inhibition of CDK9 in human MV4-11 cells assessed as reduction in RNAP2 phosphorylation at ser5 residues at 1 to 10 uM after 12 hrs by Western blot analysis; assay type: cell-based; details: dose 1-10 µM
[19] = Tmax in ICR mouse at 20 mg/kg, po measured up to 24 hrs; assay type: ADME, organism-based; details: in vivo
MV4-11 [20] = assay: Induction of apoptosis in human MV4-11 cells assessed as activation of cleaved PARP at 5 to 50 nM measured after 24 hrs by Western blot analysis; assay type: functional, cell-based; details: dose 5-50 nM
MV4-11 [21] = assay: Induction of apoptosis in human MV4-11 cells assessed as late apoptotic cells at 10 nM measured after 24 hrs by annexinV-FITC/propidium iodide staining based flow cytometry (reference value: 3.04 %); assay type: functional
MV4-11 [22] = assay: Induction of apoptosis in human MV4-11 cells assessed as necrotic cells at 10 nM measured after 24 hrs by annexinV-FITC/propidium iodide staining based flow cytometry (reference value: 1.03 %); assay type: functional
[23] = MRT in ICR mouse at 20 mg/kg, po measured up to 24 hrs; assay type: ADME, organism-based; details: in vivo
[24] = Half life in ICR mouse at 20 mg/kg, po measured up to 24 hrs; assay type: ADME, organism-based; details: in vivo
[25] = AUClast in ICR mouse at 2 mg/kg, iv measured up to 24 hrs; assay type: ADME, organism-based; design: route intravenous, dose 2 mg/kg, time <=24; details: in vivo
[26] = Observed AUC infinity in ICR mouse at 2 mg/kg, iv measured up to 24 hrs; assay type: ADME, organism-based; design: route intravenous, dose 2 mg/kg, time <=24; details: in vivo
[27] = MRT in ICR mouse at 2 mg/kg, iv measured up to 24 hrs; assay type: ADME, organism-based; details: in vivo
[28] = Half life in ICR mouse at 2 mg/kg, iv measured up to 24 hrs; assay type: ADME, organism-based; details: in vivo
MV4-11 [29] = assay: Antitumor activity against human MV4-11 cells xenografted in Nu/Nu mouse assessed as inhibition of tumor growth at 7.5 mg/kg, po administered for 21 consecutive days by digital caliper method relative to control; assay type: functional; details: MV4-11, po, 504 h, time 21 day
[30] = Toxicity in Nu/Nu mouse xenografted with human MV4-11 cells assessed as change in body weight at 7.5 mg/kg, po administered for 21 consecutive days and measured on day 22 (reference value: 23.9 +/- 0.7 g); assay type: organism-based; details: in vivo, 528 h, time 22 day

Chain of Cyclin-dependent kinase 4 (P11802 whole entry): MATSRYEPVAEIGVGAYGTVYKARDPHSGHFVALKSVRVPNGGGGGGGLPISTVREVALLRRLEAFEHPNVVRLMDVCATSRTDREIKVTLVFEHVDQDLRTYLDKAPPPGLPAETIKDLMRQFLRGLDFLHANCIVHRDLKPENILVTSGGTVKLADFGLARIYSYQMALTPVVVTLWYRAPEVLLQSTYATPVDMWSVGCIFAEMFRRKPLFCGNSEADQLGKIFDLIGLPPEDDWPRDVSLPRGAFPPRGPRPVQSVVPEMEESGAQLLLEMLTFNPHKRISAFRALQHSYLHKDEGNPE

IC50 [1]: > 1000 nM | IC50 [2]: > 1000 nM | IC50 [3]: > 1000 nM | IC50 [4]: > 1000 nM | IC50 [5]: > 1000 nM | IC50 [6]: > 1000 nM | IC50 [7]: > 1000 nM | IC50 [8]: > 1000 nM | IC50 [9]: > 1000 nM | IC50 [10]: > 1000 nM | IC50 [11]: > 1000 nM | IC50 [12]: > 1000 nM | IC50 (Ephrin type-A receptor 2): > 1000 nM | IC50 [13]: > 1000 nM | IC50 [14]: > 1000 nM | IC50 [15]: > 1000 nM | IC50 [16]: > 1000 nM | IC50 (MM1.S): 13 nM | IC50 (CCRF-CEM): 2.1 nM | inhibition [17]: inactive | inhibition [18]: inactive | Tmax [19]: 4.98 min | MRT [23]: 5.99 h | half-life [24]: 8.02 h | AUC(0-t) at 24 h [25]: 553 ng·h/mL | AUC(0-inf) [26]: 558 ng·h/mL | MRT [27]: 0.73 h | half-life [28]: 1.81 h
Compound: Cc1n[nH]c2ccc(-c3cc(N[C@@H](CO)c4ccccc4)cnc3Cl)cc12
IC50 (Z-138): 46 nM | Activity (MV4-11 [20]): Active | Activity (MV4-11 [21]): 2.95% | Activity (MV4-11 [22]): 0.84% | inhibition in vivo at 7.5 mg/kg (MV4-11 [29]): 77.4% | Activity [30]: 22.1 g
